Reference: patent EP1724268A1, “COMPOUND HAVING TGF-BETA INHIBITORY ACTIVITY AND PHARMACEUTICAL COMPOSITION CONTAINING SAME” (KIRIN BEER KABUSHIKI KAISHA, priority 2004, dated 2005)
Where two headings read alike, the source gives them in different places.

Test system: TGFβ signal
Assay: TGFβ signal inhibitory activity, (SBE)4-Luc reporter in A549 cells (Test Examples 1A and 1B)
Format: cell-based, human
Conditions: Homo sapiens, A549, read-out: TGFβ inhibition rate, %; for inhibition at 1 µM: test compound 1 µM
How it was run: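 Compounds at 3 µM and 10 µM (some 1 µM) were added with 2 ng/ml TGFβ-1 to A549 cells stably expressing an SBE-driven luciferase, then cultured 4 hr. Chemiluminescent luciferase signal gave % inhibition versus TGFβ-alone and no-TGFβ controls.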

[1] = test compound 3 µM, Reference Examples, Table 1B
[2] = test compound 10 µM, Reference Examples, Table 1B
[3] = test compound 3 µM, TGFβ-1 2 ng/ml, 4 hr, Table 1A
[4] = test compound 10 µM, TGFβ-1 2 ng/ml, 4 hr, Table 1A
[5] = 3 µM, compounds of Reference Examples (Test Example 1B)
[6] = 10 µM, compounds of Reference Examples (Test Example 1B)

| SMILES | inhibition at 3 µM [1] [%] | inhibition at 10 µM [2] [%] | inhibition at 3 µM [5] [%] | inhibition at 10 µM [6] [%] | other results |
| --- | --- | --- | --- | --- | --- |
| COc1cc2nccc(Oc3ccccc3C(=O)/C=C/c3ccccc3)c2cc1OC [r57] | 10 | 55 | – | – | – |
| Cc1cc(Oc2ccnc3ccc(F)cc23)c(-c2ccccn2)nc1C [Compound 103, 3-(6-Fluoro-quinolin-4-yloxy)-5,6-dimethyl-[2,2']bipyridine] | – | – | – | – | inhibition at 3 µM [3]: 99%; inhibition at 10 µM [4]: 100% |
| COc1cc2nccc(Oc3ccc(Br)cc3C(=O)Nc3ccc(Cl)cc3)c2cc1OC [Compound r108] | 0 | 73 | – | – | – |
| CCC(=O)c1cc(OC)ccc1Oc1ccnc2cc(OC)c(OC)cc12 [Compound r50] | 100 | 100 | – | – | – |
| COc1cc2nccc(Oc3ccc(C)nc3-c3cccc(F)c3)c2cc1OC [Compound r240] | – | – | 100 | 100 | – |
| CCOC(=O)c1ccc(C)cc1Oc1ccnc2cc(OC)c(OC)cc12 [Compound r82] | 90 | 99 | – | – | – |
| COc1cc2nccc(Oc3cc4ccccc4nc3-c3cccc(CO)c3)c2cc1OC [Compound r284, {3-[3-(6,7-Dimethoxy-quinolin-4-yloxy)-quinolin-2-yl]-phenyl}-methanol] | – | – | 96 | 100 | – |
| CCN(CC)CCCCOc1cc2nccc(Oc3ccc(C)cc3C(=O)c3ccccc3)c2cc1OC [r143] | 97 | 100 | – | – | – |
| Cc1ccc(Oc2ccnc3ccc(OCCCN4CCCCC4)cc23)c(-c2ncccn2)n1 [Compound 212, 4-(6-Methyl-2-pyrimidin-2-yl-pyridin-3-yloxy)-6-(3-piperidin-1- ? -propoxy)-quinoline] | – | – | – | – | inhibition at 3 µM [3]: 55% |
| CCOC(=O)c1ccccc1Oc1ccnc2cc(OC)c(OC)cc12 [Compound r80] | 62 | 95 | – | – | – |
| CCN(CC)CCCOc1cc2nccc(Oc3ccc(C)cc3C(=O)c3ccccc3)c2cc1OC [Compound r134] | 100 | 100 | – | – | – |
| COc1cc2c(Oc3cc4cnccc4nc3C)ccnc2cc1OCC(O)CO (stereo not shown) [Compound r408] | – | – | 38 | 79 | – |
| COc1cc2nccc(Oc3c(C(C)=O)ccc4ccccc34)c2cc1OC [Compound r41] | 57 | 97 | – | – | – |
| COc1cc2c(Oc3cc4cccnc4nc3-c3ccccc3)ccnc2cc1Cl [Compound 61, 3-(7-Chloro-6-methoxy-quinolin-4-yloxy)-2-phenyl-[1,8]naphthyrridine] | – | – | – | – | inhibition at 3 µM [3]: 98%; inhibition at 10 µM [4]: 100% |
| COc1cc2nccc(Oc3cc(C)c(C)nc3-c3ccccn3)c2cc1C(N)=O [Compound 22, 4-(5,6-Dimethyl-[2,2']bipyridin-3-yloxy)-7-methoxy-quinoline-6-carboxylic acid amide] | – | – | – | – | inhibition at 1 µM (TGFβ-1 2 ng/ml, 4 hr, Table 1A): 81%; inhibition at 3 µM [3]: 99% |
| COc1cc2nccc(Oc3c(Br)cc(Br)cc3C(=O)Nc3ccc(Br)cc3)c2cc1OC [Compound r113] | 0 | 96 | – | – | – |
| Cc1cc(Oc2ccnc3ccc(-c4cccnc4)cc23)c(-c2ccccn2)nc1C [Compound 6, 5,6-Dimethyl-3-(6-pyridin-3-yl-quinolin-4-yloxy)-[2,2']bipyridine] | – | – | – | – | inhibition at 3 µM [3]: 100%; inhibition at 10 µM [4]: 100% |
| CCOC(=O)C1CCN(CCOc2cc3nccc(Oc4cc5ccccc5nc4C)c3cc2OC)CC1 [Compound r363] | – | – | 100 | 100 | – |
| COc1cc2ncnc(Oc3ccc(C)cc3C(=O)c3ccccc3)c2cc1OC [r161] | 25 | 83 | – | – | – |
| COc1cc2c(Oc3cc(C)c(C)nc3-c3ccccn3)ccnc2cc1O [Compound r338] | – | – | 92 | 100 | – |
| CCOC(=O)c1cc(Br)ccc1Oc1ccnc2cc(OC)c(OC)cc12 [Compound r85] | 87 | 100 | – | – | – |
| COc1cc2nccc(Oc3cc(C)nc4ccc(F)cc34)c2cc1OC [Compound r308] | – | – | 21 | 56 | – |
| COc1cc2c(Oc3cc4ccccc4nc3C)ccnc2cc1OCCCO [Compound r382] | – | – | 100 | 100 | – |
| COc1ccc2nccc(Oc3cc(C)c(C)nc3-c3ccccn3)c2c1 [Compound 4, 3-(6-Methoxy-quinolin-4-yloxy)-5,6-dimethyl-[2,2']bipyridine] | – | – | – | – | inhibition at 1 µM (TGFβ-1 2 ng/ml, 4 hr, Table 1A): 94%; inhibition at 3 µM [3]: 100% |
| C=CCON=C(C)c1cc(C)c(C)cc1Oc1ccnc2cc(OC)c(OC)cc12 [Compound r197] | – | – | 40 | 88 | – |
| COc1cc2nccc(Oc3ccc(C)nc3-c3cccc(C)n3)c2cc1OC [Compound r264] | – | – | 88 | 100 | – |
| COc1cc2c(Oc3ccc(C)cc3C(=O)c3ccccc3)ccnc2cc1OCC(O)CN1CCC(N2CCCCC2)CC1 (stereo not shown) [Compound r156] | 99 | 100 | – | – | – |

| SMILES | inhibition at 3 µM [1] [%] | inhibition at 10 µM [2] [%] | inhibition at 3 µM [5] [%] | inhibition at 10 µM [6] [%] | other results |
| --- | --- | --- | --- | --- | --- |
| COc1cc2c(Oc3cc4cnccc4nc3C)ccnc2cc1OCCO [Compound r407] | – | – | 71 | 97 | – |
| COc1cc2nccc(Oc3ccc(C)nc3-c3cccc(C)c3)c2cc1OC [Compound r229] | – | – | 99 | 100 | – |
| COc1cc2c(Oc3cc(C)c(C)nc3-c3ccccn3)ccnc2cc1OCCCCO [Compound r445] | – | – | 99 | – | – |
| Brc1ccc2ncnc(Oc3cc4cccnc4nc3-c3ccccc3)c2c1 [Compound 69, 6-Bromo-4-(2-phenyl-[1,8]naphthyridin-3-yloxy)-quinazoline] | – | – | – | – | inhibition at 3 µM [3]: 52%; inhibition at 10 µM [4]: 94% |
| COc1cc2c(Oc3cc(C)c(C)nc3-c3cccnc3)ccnc2cc1OCC1CO1 (stereo not shown) [Compound r348] | – | – | 76 | – | – |
| COc1cc2nccc(Oc3cccc4ccccc34)c2cc1OC [Compound r16] | 0 | 62 | – | – | – |
| COc1cc2nccc(Oc3cc(C)c(C)nc3-c3ccccn3)c2cc1NCCO [Compound 154, 2-[4-(5,6-Dimethyl-[2,2']bipyridinyl-3-yloxy)-7-methoxy-quinolin-6-ylamino]-ethanol] | – | – | – | – | inhibition at 3 µM [3]: 99%; inhibition at 10 µM [4]: 100% |
| CCOC(=O)c1cc(F)ccc1Sc1ccnc2cc(OC)c(OC)cc12 [Compound r419] | – | – | 7 | 67 | – |
| CCOC(=O)c1cc(F)ccc1Oc1ccnc2cc(OC)c(OC)cc12 [Compound r83] | 41 | 81 | – | – | – |
| COc1cc2c(Oc3ccc(C)cc3C(=O)c3ccccc3)ccnc2cc1OCCCCN1CCN(C)CC1 [Compound r148] | 99 | 100 | – | – | – |
| COc1cc2c(Oc3ccc(C)cc3C(=O)c3ccccc3)ccnc2cc1OCCCN1CCOCC1 [r139] | 99 | 100 | – | – | – |
| CCOC(=O)c1c(C)cccc1Oc1ccnc2cc(OC)c(OC)cc12 [Compound r92] | 25 | 82 | – | – | – |
| CCc1ccc(Oc2ccnc3cc(C(C)(C)C)sc23)c(-c2ccccn2)n1 [Compound 180, 3-(2-Tert-butyl-thieno[3,2-b]pyridin-7-yloxy)-6-ethyl-[2,2']bipyridine] | – | – | – | – | inhibition at 3 µM [3]: 74%; inhibition at 10 µM [4]: 98% |
| Cc1cc(Oc2ccnc3cc(-c4ccccc4)ccc23)c(-c2ccccn2)nc1C [Compound 17, 5,6-Dimethyl-3-(7-phenyl-quinolin-4-yloxy)-[2,2']bipyridine] | – | – | – | – | inhibition at 3 µM [3]: 98%; inhibition at 10 µM [4]: 100% |
| COc1ccc(C(=O)c2ccccc2)c(Oc2ccnc3cc(OC)c(OC)cc23)c1 [Compound r64] | 67 | 98 | – | – | – |
| CCOC(=O)c1cc(-c2ccc(F)cc2F)ccc1Oc1ccnc2cc(OC)c(OC)cc12 [Compound r89] | 20 | 63 | – | – | – |
| COc1cc2c(Oc3cc4ccccc4nc3C)ccnc2cc1OCCCN [Compound r376] | – | – | 100 | 100 | – |
| COc1cc2nccc(Oc3ccc(-n4ccnc4)cc3I)c2cc1OC [r171] | – | – | 11 | 76 | – |
| COc1cc2nccc(Oc3ccc(C)nc3-c3cccc(CO)c3)c2cc1OC [Compound r231] | – | – | 100 | 100 | – |
| CCCCC(=O)c1cc(C)ccc1Oc1ccnc2cc(OC)c(OC)cc12 [Compound r52] | 97 | 100 | – | – | – |
| COc1cc2c(Oc3cc4ccccc4nc3C)ccnc2cc1-c1ccncc1 [r414] | – | – | 82 | 100 | – |
| FC(F)(F)c1ccc2nccc(Oc3cc4cccnc4nc3-c3ccccc3)c2c1 [Compound 54, 2-Phenyl-3-(6-trifluoromethyl-quinolin-4-yloxy)-[1,8]naphthyridine] | – | – | – | – | inhibition at 3 µM [3]: 76%; inhibition at 10 µM [4]: 99% |
| COC(=O)c1cc2ccccc2cc1Oc1ccnc2cc(OC)c(OC)cc12 [Compound r79, Methyl 3-[(6,7-Dimethoxy-4-quinolyl)oxy]naphthalene-2-carboxylate] | 97 | 100 | – | – | – |
| COc1cc2nccc(Oc3ccc(C)cc3C(=O)CCC3CCCC3)c2cc1OC [Compound r56] | 0 | 84 | – | – | – |
| COc1ccc(Oc2ccnc3cc(OCCCl)c(OC)cc23)c(C(C)=O)c1 [r119] | 96 | 97 | – | – | – |
| Cc1cc(Oc2ccnc3ccsc23)c(-c2ccccn2)nc1C [Compound 28, 5,6-Dimethyl-3-(thieno[3,2-b]pyridin-7-yloxy)-[2,2']bipyridine] | – | – | – | – | inhibition at 1 µM (TGFβ-1 2 ng/ml, 4 hr, Table 1A): 96%; inhibition at 3 µM [3]: 100% |
